Earlier results, collected in patent publication US10525009B2, “Formulations of 6-mercaptopurine” (Hadasit Medical Research Services and Development Ltd., priority 2004, dated 2020).

- fraction of an oral dose absorbed: Approximately 50%
SMILES: Sc1ncnc2nc[nH]c12 [6-MP, 6-mercaptopurine]
